Key:
[1] = test system: Saccharomyces cerevisiae; test: (§1) Inhibition of Saccharomyces cerevisiae alpha-glucosidase using pNPG as substrate preincubated for 10 mins followed by substrate addition measured after 20 mins by spectrophotometric analysis
[2] = as §1

inhibition [1] | IC50 [2] | SMILES
Dose-dependent effect | 441 µM | C[C@@H]1OC(=O)c2c(O)cccc2[C@H]1O
– | 545 µM | C[C@H]1O[C@H](O[C@H]2[C@H](O)[C@@H](O)[C@@H](O[C@H]3[C@H](O)[C@@H](O)C(O)O[C@@H]3CO)O[C@@H]2CO)[C@H](O)[C@@H](O)[C@@H]1N[C@H]1C=C(CO)[C@@H](O)[C@H](O)[C@H]1O (stereo not given in full) [ACARBOSE]
Dose-dependent effect | 549 µM | C[C@@H]1OC(=O)c2c(O)cccc2[C@@H]1O
